In patent publication US11192849B2, “Compounds, compositions, and methods for modulating ferroptosis and treating excitotoxic disorders” (THE TRUSTEES OF COLUMBIA UNIVERSITY IN THE CITY OF NEW YORK, priority 2013, dated 2021):

How the values were obtained:
HT-1080 cells [1] = test: Cytosolic and lipid ROS production (H2DCFDA, C11-BODIPY flow cytometry) in HT-1080 cells; type: cell-based, human; details: erastin (10 μM)
Protocol: The day before the experiment, 200,000 cells/well were seeded in 6-well dishes (Corning Inc., Corning, N.Y.). The day of the experiment, cells were treated with test compounds for the indicated times, then harvested by trypsinization, resuspended in 500 μL Hanks Balanced Salt Solution (HBSS, Gibco, Invitrogen Corp., Carlsbad, Calif.) containing either H2DCFDA (25 μM), C11-BODIPY(581/591) (2 μM) or MitoSOX (5 μM) (all from Molecular Probes, Invitrogen) and incubated for 10 minutes at 37° C. in a tissue culture incubator. Cells were then resuspended in 500 μL of fresh HBSS, strained through a […] cell strainer (BD Falcon, BD Biosciences, San Jose, Calif.), and analyzed using a flow cytometer (FACSCalibur or Accuri C6, BD Biosciences), which was equipped with 488-nm laser for excitation. Data was collected from the FL1 (H2DCFDA, C11-BODIPY) or FL2 channel (MitoSOX). A minimum of 10,000 cells were analyzed per condition.

HT-1080 cells [2] = test: Inhibition of erastin (10 μM)-induced death in HT-1080 cells (Alamar Blue); type: cell-based, human; details: added up to 6 hours after erastin
How it was run: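 HT-1080 cells (1,000/well) were treated next day with 10 μM erastin plus a compound dilution series for 24 h. Alamar Blue (10% final) was then added for 6 h and fluorescence read at ex/em 530/590.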

[3] = tested on: HT-1080, BJeLR and Calu-1 cells; test: Modulatory profiling of cell death inhibitors against erastin; type: cell-based, human; details: erastin 10 μM, 24 hours; 10-point, 4-fold dilution series
Protocol: The day before the experiment, cells were seeded in black, 384-well clear bottom plates (Corning) at a density of 1,000 cells/well using a Beckman Biomek FX Workstation. All compounds (except 3-methyladenine and chloroquine, which were diluted in water) were diluted in DMSO at 250 times the final highest test concentration, and aliquoted across a 384-well plate (Greiner, Monroe, N.C.). A ten-point, 4-fold dilution series of each inhibitor in DMSO was made using a multichannel pipette. Replicates of this mother plate were stored at −20° C. […] Medium was removed from cells and replaced with 36 μL medium containing DMSO (0.1%) or erastin (10 μM final concentration). Using the Biomek FX, 4 μL were then transferred from each inhibitor daughter plate into the DMSO-containing or erastin-containing assay plates. For 3-methyladenine and chloroquine, inhibitors were prepared fresh in media at 10-fold the final concentration in the presence of DMSO or 10 μM erastin. These solutions were manually pipetted onto cells in 384-well format. Assay plates were incubated at 37° C. for 24 hours. Viability was assessed using Alamar Blue.
The modulatory effect (Me) for drug-drug interactions was computed as follows. First, plate-based background correction was performed using Alamar Blue values from empty (cell-free) wells included on each plate. Next, within each experiment, 100% viability is determined as the average Alamar Blue score for cells treated with modulator=DMSO and lethal=DMSO, and all Alamar Blue values were scaled from 0 to 1 with the DMSO×DMSO condition=1. The individual effects of each modulator and lethal (e.g. in the presence of DMSO) at all tested doses were then ascertained. […] Next, BExp was compared to the actual observed viability. […] By default, Me in DMSO-treated cells is equal to 0. […] Me values for each inhibitor-lethal drug combination were hierarchically clustered and plotted as a heatmap using the heatmaps.2 function of the gplots library in R.

Calu-1 cells = test: Erastin-induced ferroptosis in Calu-1 cells, NOX pathway inhibitors; type: cell-based, human
Protocol: Cell viability was typically assessed in 384-well format by Alamar Blue (Invitrogen) fluorescence (ex/em 530/590) measured on a Victor3 platereader (Perkin Elmer, Waltham, Mass.). In some experiments, Trypan Blue dye exclusion counting was performed using an automated cell counter (ViCell, Beckman-Coulter Inc., Brea, Calif.). Cell viability in test conditions is reported as a percentage relative to the negative control treatment.

[4] = tested on: mouse kidney proximal tubules; test: Hydroxyquinoline + iron induced cell death in isolated mouse kidney proximal tubules (LDH release); type: cell-based; details: 10 μM hydroxyquinoline and ferrous ammonium sulfate, 60 min
Protocol: Tubule preparation: 8-12 week old C57/BL6 female mice were euthanized with isoflurane. […] The cortices were then dissected and minced on an ice cold tile, then resuspended in additional Solution A for 8-10 min. of digestion at 37° C. followed by enrichment of proximal tubules using centrifugation on self-forming Percoll gradients as previously described for rabbit tubules.
Experimental procedures for isolated tubules: Tubules were suspended at 1.5-2.0 mg tubule protein/ml in a 95% air/5% CO2-gassed medium containing (in mM) 110 NaCl, 2.6 KCl, 25 NaHCO3, 2.4 KH2PO4, 1.25 CaCl2, 1.2 MgCl2, 1.2 MgSO4, 5 glucose, 4 sodium lactate, 0.3 alanine, 5 sodium butyrate, 2 glycine, and 1.0 mg/ml bovine gelatin (75 bloom) (Solution B). After precincubation for 15 min. at 37° C., then were then resuspended in fresh Solution B containing 2 mM heptanoic acid instead of sodium butyrate along with experimental compounds.
In addition, the efficacy of Fer-1, SRS11-92, and selected analogs was tested in a model of iron-induced cell death in freshly isolated mouse kidney proximal tubules that simulates major elements of rhabdomyolysis-induced acute kidney injury (FIG. 15C). Cell death in this model is known to involve oxidative lipid damage (Sogabe, et al., 1996, Park, et al., 2011); it was therefore believed that Fer-1 might be protective. 10 μM each of hydroxyquinoline and ferrous ammonium sulfate (HQ+Fe) were used to induce cell death, which was quantified by monitoring LDH release after 60 min. […] By implication, cell death in these models may involve, at least in part, the induction of lipid peroxidation and perhaps ferroptosis.

[5] = tested on: rat organotypic hippocampal slice culture (OHSC); test: Glutamate excitotoxic injury in organotypic hippocampal slice cultures (PI uptake); type: cell-based; details: 5 mM L-glutamate 3 hours; Fer-1 2 μM, CPX 5 μM, MK-801 10 μM; 24 hours
Protocol: OHSCs were cultured as previously described (Morrison et al., 2002) with approval from Columbia University's Institutional Animal Care and Use Committee (IACUC). Briefly, Sprague Dawley rat pups (P8-P10) were rapidly decapitated, and the hippocampus placed in ice-cold Gey's balanced salt solution (Sigma). 400 μm thick sections were cut using a Mcllwain tissue chopper and immediately plated on Millicell cell culture inserts (Millipore, Billerica, Mass.) in Neurobasal (Invitrogen) media supplemented with B27 (1×, Invitrogen), GlutaMAX (1 mM, Invitrogen), and D-glucose (4.5 mg/mL, Sigma) at 37° C. and 5% CO2. After 2 days in vitro (DIV), the media was changed to medium containing serum comprised of 50% DMEM (Sigma), 25% heat-inactivated horse serum (Sigma), 25% Hank's balanced salt solution (Sigma), GlutaMAX (1 mM, Invitrogen), and D-glucose (4.5 mg/mL, Sigma). Medium was changed every 2-3 days.
After 10-14 DIV, OBSCs were exposed to an excitotoxic injury consisting of a 3 hour exposure to 5 mM L-glutamate in SFM (Morrison et al., 2002). […] After the 3 hour exposure, the cultures were placed in fresh serum free media (SFM) containing 75% DMEM, 25% Hank's balanced salt solution, GlutaMAX (1 mM), D-glucose (4.5 mg/mL) until cell death was quantified at 24 hours. […]
Quantification of cell death has been described previously (Cater et al., 2007; Morrison et al., 2002). […] Percentage cell death was expressed as the number of pixels in the ROI above a threshold in the PI fluorescent image divided by the total number of pixels in the ROI.
OHSCs were treated with a lethal excitotoxic stimulus (5 mM L-glutamate, 3 hours) that mimics the consequences of stroke and neurodegenerative disease (Morrison et al., 2002; Sundstrom et al., 2005) (FIG. 5A). […] The effects of these compound treatments on propidium iodide (PI) uptake were analyzed, as an indicator of cell death, 24 hours following the end of glutamate treatment, in 3 defined regions of the OHSCs: the dentate gyrus (DG), the CA1 and the CA3 fields of the hippocampus.

system xc− = target: T1, system xc− (Homo sapiens, UniProt Q9UPY5); test: [14C]Cystine uptake assay in HT-1080 cells; type: cell-based; details: Erastin 10 μM, glutamate 50 mM, SAS 1 mM
T1 construct: endogenous in cells; host or cells: HT-1080 cells (ATCC)
T1 sequence (Q9UPY5 1-501): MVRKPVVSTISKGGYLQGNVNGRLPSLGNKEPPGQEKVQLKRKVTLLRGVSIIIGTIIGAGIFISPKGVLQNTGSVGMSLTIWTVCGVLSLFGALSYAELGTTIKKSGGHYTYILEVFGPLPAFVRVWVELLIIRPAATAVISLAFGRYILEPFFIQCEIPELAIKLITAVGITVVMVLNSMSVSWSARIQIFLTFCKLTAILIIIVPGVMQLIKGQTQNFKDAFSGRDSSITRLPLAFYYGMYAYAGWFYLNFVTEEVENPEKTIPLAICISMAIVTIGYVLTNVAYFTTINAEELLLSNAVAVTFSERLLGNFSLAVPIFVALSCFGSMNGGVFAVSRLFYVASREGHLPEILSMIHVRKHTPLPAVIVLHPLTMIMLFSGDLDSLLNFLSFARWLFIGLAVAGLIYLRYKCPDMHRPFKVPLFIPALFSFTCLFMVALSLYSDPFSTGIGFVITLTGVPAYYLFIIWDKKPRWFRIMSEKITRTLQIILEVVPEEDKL
T1 sequence (P08195 1-529 partner): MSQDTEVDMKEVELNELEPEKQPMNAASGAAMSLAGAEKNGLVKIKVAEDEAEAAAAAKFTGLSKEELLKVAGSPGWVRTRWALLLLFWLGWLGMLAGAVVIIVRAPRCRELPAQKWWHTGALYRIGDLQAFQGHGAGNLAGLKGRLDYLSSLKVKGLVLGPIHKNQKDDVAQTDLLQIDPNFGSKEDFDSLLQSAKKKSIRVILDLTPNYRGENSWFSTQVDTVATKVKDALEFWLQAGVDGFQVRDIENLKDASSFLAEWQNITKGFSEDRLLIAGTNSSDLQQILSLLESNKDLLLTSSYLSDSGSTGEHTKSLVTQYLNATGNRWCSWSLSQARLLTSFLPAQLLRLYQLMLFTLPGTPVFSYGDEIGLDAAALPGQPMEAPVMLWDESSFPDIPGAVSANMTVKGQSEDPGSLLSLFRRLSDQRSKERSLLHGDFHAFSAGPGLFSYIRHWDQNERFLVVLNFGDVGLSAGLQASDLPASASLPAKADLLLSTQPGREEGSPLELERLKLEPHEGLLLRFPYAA
Protocol: 200,000 HT-1080 cells/well were seeded overnight in 6-well dishes (Corning). […] At this point, in each well the buffer was replaced with 600 μL uptake buffer containing compound and 0.12 μCi (80-110 mCi/mmol) of L-[3,3′-^14C]-cystine (Perkin Elmer) and incubated for 3 minutes at 37° C. Cells were then washed three times with ice-cold uptake buffer and lysed in 500 μL 0.1 M NaOH. To this lysate was added 15 mL of scintillation fluid and radioactive counts per minute were obtained using a scintillation counter. All measurements were performed in triplicate for each condition.

HT-1080 cells [6] = test: Mitochondrial ROS (MitoSOX) in HT-1080 cells; type: cell-based, human; details: HT-1080, 6 hours; erastin 10 μM, rotenone 250 nM
Protocol: 200,000 HT-1080 cells were seeded into 6-well dishes (Corning). The next day, cells were treated with +/−rotenone +/−ferrostatin-1 for 3 hours (for MitoSOX experiments) or +/−STS +/−ferrostatin-1 for 4 hours (for 10-N-nonylacridine orange [NAO] experiments), harvested by trypsinization and analyzed as follows. For the analysis of mitochondrial ROS, cells were incubated with 5 μM MitoSOX (Molecular Probes/Invitrogen) in HBSS for 10 minutes in the dark at 37° C. […] MitoSOX data were collected in the FL2 channel and NAO data was collected in the FL1 channel. Data are from three independent biological replicates of each experiment. Data were analyzed by one-way ANOVA with Bonferroni's post-hoc test.

N#CC(=C(N)Sc1ccccc1N)C(C#N)=C(N)Sc1ccccc1N [Compound U0126, 1,4-diamino-2,3-dicyano-1,4-bis (2-aminophenylthio)butadiene]
effect of inhibitor on erastin-induced ROS accumulation (HT-1080 cells [1]): prevented the accumulation of H2DCFDA-sensitive ROS
protection when added after erastin (HT-1080 cells [2]): substantial protection from death
modulation of erastin-induced death [3]: rescued from erastin-induced death

c1ccc2c(c1)[I+]c1ccccc1-2 [DPI, diphenylene iodonium]
suppression of erastin-induced ferroptosis (Calu-1 cells): strongly suppressed

CN(C)c1cccc(-c2c3c(=O)n(-c4ccccc4Cl)[nH]c3cc(=O)n2C)c1 [GKT137831, reference compound]
suppression of erastin-induced ferroptosis (Calu-1 cells): strongly suppressed
HQ+Fe induced lethality (LDH release) [4]: protective

C[C@]12N[C@H](Cc3ccccc31)c1ccccc12 [MK-801]
glutamate-induced cell death (PI uptake) in DG, CA1, CA3 [5]: attenuated significantly

O=C(O)c1cc(/N=N/c2ccc(S(=O)(=O)Nc3ccccn3)cc2)ccc1O [SAS, sulfasalazine]
Na+-independent uptake of [14C]cystine (system xc−): abolished

N[C@@H](CCC(=O)O)C(=O)O [glutamate]
Na+-independent uptake of [14C]cystine (system xc−): abolished

C=C(C)[C@H]1Cc2c(ccc3c2O[C@@H]2COc4cc(OC)c(OC)cc4[C@@H]2C3=O)O1 [rotenone, reference compound]
MitoSOX-sensitive mitochondrial ROS production (HT-1080 cells [6]): enhanced MitoSOX-sensitive ROS production

Cc1c(C)c2c(c(C)c1O)CCC(C)(C(=O)O)O2 (stereo not shown) [trolox, 6-hydroxy-2,5,7,8-tetramethylchroman-2-carboxylic acid]
effect of inhibitor on erastin-induced ROS accumulation (HT-1080 cells [1]): prevented the accumulation of H2DCFDA-sensitive ROS
protection when added after erastin (HT-1080 cells [2]): substantial protection from death
modulation of erastin-induced death [3]: rescued from erastin-induced death
